Converted amounts (≈) assume the structure as drawn. The source made the active and inactive calls. The calls are words filed in the database; no cut-off is given here.
Columns and labels:
Format in all cases: functional
[1] = tested on: Pseudomonas aeruginosa; test: Antibacterial activity against Pseudomonas aeruginosa MTCC 741 assessed as inhibition zones at 300 ug/disk at 37 degC for 24 hr; conditions: MTCC 741, 24 h, read-out: IZ
[2] = tested on: Chromobacterium violaceum; test: Antibacterial activity against Chromobacterium violaceum MTCC 2656 assessed as growth arrest at 37 degC for 24 hr; conditions: MTCC 2656, 24 h
[3] = tested on: Chromobacterium violaceum; test: Antibacterial activity against Chromobacterium violaceum MTCC 2656 assessed as inhibition zones at 300 ug/disk at 37 degC for 24 hr; conditions: MTCC 2656, 24 h, read-out: IZ
[4] = tested on: Trichophyton mentagrophytes; test: Antifungal activity against Trichophyton mentagrophytes IFO 40996 assessed as growth inhibition at 300 ug/disc at 37 degC for 48 hr; conditions: for zone of inhibition at 300 µg/disc: IFO 40996, 48 h, read-out: IZ
[5] = tested on: Bacillus subtilis; test: Antibacterial activity against Bacillus subtilis MTCC 441 assessed as growth arrest at 37 degC for 24 hr; conditions: MTCC 441, 24 h
[6] = tested on: Pseudomonas aeruginosa; test: Antibacterial activity against Pseudomonas aeruginosa MTCC 741 assessed as growth arrest at 37 degC for 24 hr; conditions: MTCC 741, 24 h
[7] = tested on: Staphylococcus aureus; test: Antibacterial activity against Staphylococcus aureus MTCC 96 assessed as growth arrest at 37 degC for 24 hr; conditions: MTCC 96, 24 h
[8] = tested on: Trichophyton rubrum; test: Antifungal activity against Trichophyton rubrum IFO 9185 assessed as growth inhibition at 37 degC for 48 hr; conditions: IFO 9185, 48 h
[9] = tested on: Staphylococcus aureus; test: Antibacterial activity against Staphylococcus aureus MTCC 96 assessed as inhibition zones at 300 ug/disc at 37 degC for 24 hr; conditions: MTCC 96, 24 h, read-out: IZ
[10] = tested on: Trichophyton rubrum; test: Antifungal activity against Trichophyton rubrum IFO 9185 assessed as growth inhibition at 300 ug/disk at 37 degC for 48 hr; conditions: IFO 9185, 48 h, read-out: IZ
[11] = tested on: Aspergillus fumigatus; test: Antifungal activity against Aspergillus fumigatus HIC 6094 assessed as growth inhibition at 37 degC for 48 hr; conditions: HIC 6094, 48 h
[12] = tested on: Lysinibacillus sphaericus; test: Antibacterial activity against Lysinibacillus sphaericus MTCC 11 assessed as growth arrest at 37 degC for 24 hr; conditions: MTCC 11, 24 h
[13] = tested on: Lysinibacillus sphaericus; test: Antibacterial activity against Lysinibacillus sphaericus MTCC 11 assessed as inhibition zones at 300 ug/disk at 37 degC for 24 hr; conditions: MTCC 11, 24 h, read-out: IZ
[14] = tested on: Candida albicans; test: Antifungal activity against Candida albicans ATCC 10231 assessed as growth inhibition at 300 ug/disk at 37 degC for 48 hr; conditions: for zone of inhibition at 300 µg/disc: ATCC 10231, 48 h, read-out: IZ
[15] = tested on: Caenorhabditis elegans; test: Nematicidal activity against Caenorhabditis elegans assessed as immobility; conditions: read-out: LD50 (the source's name)
[16] = tested on: Trichophyton mentagrophytes; test: Antifungal activity against Trichophyton mentagrophytes IFO 40996 assessed as growth inhibition at 37 degC for 48 hr; conditions: IFO 40996, 48 h
[17] = tested on: Klebsiella aerogenes; test: Antibacterial activity against Enterobacter aerogenes MTCC 39 assessed as growth arrest at 37 degC for 24 hr; conditions: MTCC 39, 24 h
[18] = tested on: Klebsiella aerogenes; test: Antibacterial activity against Enterobacter aerogenes MTCC 39 assessed as inhibition zones at 300 ug/disk at 37 degC for 24 hr; conditions: MTCC 39, 24 h, read-out: IZ
[19] = tested on: Bacillus subtilis; test: Antibacterial activity against Bacillus subtilis MTCC 441 assessed as inhibition zones at 300 ug/disk at 37 degC for 24 hr; conditions: MTCC 441, 24 h, read-out: IZ
[20] = tested on: Candida albicans; test: Antifungal activity against Candida albicans ATCC 10231 assessed as growth inhibition at 37 degC for 48 hr; conditions: ATCC 10231, 48 h
[21] = tested on: Aspergillus fumigatus; test: Antifungal activity against Aspergillus fumigatus HIC 6094 assessed as growth inhibition at 300 ug/disc at 37 degC for 48 hr; conditions: for zone of inhibition at 300 µg/disc: HIC 6094, 48 h, read-out: IZ
[22] = tested on: Ditylenchus myceliophagus; test: Nematicidal activity against Ditylenchus myceliophagus assessed as immobility; conditions: read-out: LD50 (the source's name)

| Structure (SMILES) | zone of inhibition at 300 µg/disc [1] [mm] | MBC [2] [µg/mL] | MIC [2] [µg/mL] | zone of inhibition at 300 µg/disc [3] [mm] | MBC [5] [µg/mL] | MIC [5] [µg/mL] | MBC [6] [µg/mL] | MIC [6] [µg/mL] | MBC [7] [µg/mL] | MIC [7] [µg/mL] | MBC [8] [µg/mL] | MIC [8] [µg/mL] | zone of inhibition at 300 µg/disc [9] [mm] | zone of inhibition at 300 µg/disc [10] [mm] | MBC [11] [µg/mL] | MIC [11] [µg/mL] | MBC [12] [µg/mL] | MIC [12] [µg/mL] | zone of inhibition at 300 µg/disc [13] [mm] | LC50 [15] [µg/mL] | further results |
| --- | --- | --- | --- | --- | --- | --- | --- | --- | --- | --- | --- | --- | --- | --- | --- | --- | --- | --- | --- | --- | --- |
| COc1ccc(Cc2ccc(OC)c(C3SC4C(=NN(c5ccc(Cl)cc5)C4c4ccc(F)cc4)N3c3ccc(Cl)cc3)c2)cc1C1SC2C(=NN(c3ccc(Cl)cc3)C2c2ccc(F)cc2)N1c1ccc(Cl)cc1 (stereo unspecified) | 18 | 50 (≈ 44.9 µM) | 25 (≈ 22.5 µM) | 18 | 25 (≈ 22.5 µM) | 12.5 (≈ 11.2 µM) | 50 (≈ 44.9 µM) | 50 (≈ 44.9 µM) | 50 (≈ 44.9 µM) | 12.5 (≈ 11.2 µM) | 12.5 (≈ 11.2 µM) | 12.5 (≈ 11.2 µM) | 22 | 15 | 25 (≈ 22.5 µM) | 25 (≈ 22.5 µM) | 25 (≈ 22.5 µM) | 6.25 (≈ 5.62 µM) | 19 | 380 (≈ 341 µM) | inhibition zone (IZ) [4]: inactive; inhibition zone (IZ) [14]: inactive; MBC [16]: 50 µg/mL (≈ 44.9 µM); MIC [16]: 25 µg/mL (≈ 22.5 µM); MBC [17]: 12.5 µg/mL (≈ 11.2 µM); MIC [17]: 12.5 µg/mL (≈ 11.2 µM); zone of inhibition at 300 µg/disc [18]: 19 mm; zone of inhibition at 300 µg/disc [19]: 11 mm; MBC [20]: 12.5 µg/mL (≈ 11.2 µM); MIC [20]: 12.5 µg/mL (≈ 11.2 µM); inhibition zone (IZ) [21]: inactive; LC50 [22]: 290 µg/mL (≈ 261 µM) |
| COc1ccc(Cc2ccc(OC)c(C3SC4C(=NN(C)C4c4ccc(F)cc4)N3c3ccc(C)cc3)c2)cc1C1SC2C(=NN(C)C2c2ccc(F)cc2)N1c1ccc(C)cc1 (stereo unspecified) | 14 | 12.5 (≈ 14.2 µM) | 6.25 (≈ 7.11 µM) | 18 | 50 (≈ 56.9 µM) | 6.25 (≈ 7.11 µM) | 12.5 (≈ 14.2 µM) | 12.5 (≈ 14.2 µM) | 25 (≈ 28.4 µM) | 12.5 (≈ 14.2 µM) | 6.25 (≈ 7.11 µM) | 3.12 (≈ 3.55 µM) | 25 | 20 | 6.25 (≈ 7.11 µM) | 3.12 (≈ 3.55 µM) | 25.5 (≈ 29 µM) | 12.5 (≈ 14.2 µM) | 13 | 200 (≈ 228 µM) | zone of inhibition at 300 µg/disc [4]: 18 mm; zone of inhibition at 300 µg/disc [14]: 20 mm; MBC [16]: 12.5 µg/mL (≈ 14.2 µM); MIC [16]: 6.25 µg/mL (≈ 7.11 µM); MBC [17]: 12.5 µg/mL (≈ 14.2 µM); MIC [17]: 6.25 µg/mL (≈ 7.11 µM); zone of inhibition at 300 µg/disc [18]: 20 mm; zone of inhibition at 300 µg/disc [19]: 13 mm; MBC [20]: 3.12 µg/mL (≈ 3.55 µM); MIC [20]: 3.12 µg/mL (≈ 3.55 µM); zone of inhibition at 300 µg/disc [21]: 20 mm; LC50 [22]: 160 µg/mL (≈ 182 µM) |
| COc1ccc(N2N=C3C(SC(c4cc(Cc5ccc(OC)c(C6SC7C(=NN(c8ccc(OC)cc8)C7c7ccc(F)cc7)N6c6ccc(C)cc6)c5)ccc4OC)N3c3ccc(C)cc3)C2c2ccc(F)cc2)cc1 (stereo unspecified) | 18 | 12.5 (≈ 11.8 µM) | 6.25 (≈ 5.88 µM) | 17 | 25 (≈ 23.5 µM) | 25 (≈ 23.5 µM) | 25 (≈ 23.5 µM) | 12.5 (≈ 11.8 µM) | 25 (≈ 23.5 µM) | 25 (≈ 23.5 µM) | 12.5 (≈ 11.8 µM) | 12.5 (≈ 11.8 µM) | 26 | 13 | 50 (≈ 47 µM) | 25 (≈ 23.5 µM) | 50 (≈ 47 µM) | 50 (≈ 47 µM) | 15 | 870 (≈ 818 µM) | zone of inhibition at 300 µg/disc [4]: 12 mm; zone of inhibition at 300 µg/disc [14]: 9 mm; MBC [16]: 25 µg/mL (≈ 23.5 µM); MIC [16]: 12.5 µg/mL (≈ 11.8 µM); MBC [17]: 25 µg/mL (≈ 23.5 µM); MIC [17]: 25 µg/mL (≈ 23.5 µM); zone of inhibition at 300 µg/disc [18]: 20 mm; zone of inhibition at 300 µg/disc [19]: 15 mm; MBC [20]: 25 µg/mL (≈ 23.5 µM); MIC [20]: 25 µg/mL (≈ 23.5 µM); zone of inhibition at 300 µg/disc [21]: 15 mm; LC50 [22]: 950 µg/mL (≈ 893 µM) |

Source: ChEMBL document CHEMBL3045223, “Synthesis, nematicidal and antimicrobial properties of Bis-[4-methoxy-3-[3-(4-fluorophenyl)-6-(4-methylphenyl)-2(aryl)-tetrahydro-2H-pyrazolo[3,4-d]thiazol-5-yl]phenyl]methanes” (2009)
